Reference: patent publication US7175872B2, “Pyridinium-Betain compounds for use as taste modulators” (Nestec S.A., priority 2002, dated 2007)
Structures can show the parent of a compound that is named as a salt.

Tests used:
bitter taste = details: in vivo; cited from earlier work
[1] = test system: bitter taste of L-phenylalanine; assay: Bitter-blocking effect on L-phenylalanine (detection threshold, 1/1 mixtures); type: in vivo; details: for own taste: Pyridinium-Betaine alone; for Taste quality: conc. 32 mmol/L, mixtures 1/1 with L-Phe
Method: • Sensory panel training: […] Sensory analyses were performed in a sensory panel room at 22-25° C. on three different sessions. • Taste thresholds: The taste thresholds of the tastants or mixtures containing basic tastants plus Pyridinium-Betains were determined in a triangle test using Evian® mineral water as the solvent at a defined pH ([…] and H.-D. Belitz, Z. Lebensm. Unters. Forsch. 1975, 159, 65-72). The samples (3 mL) were presented in order of increasing concentrations (serial 1:1 dilutions). The threshold values evaluated in two different sessions were averaged. […] The taste intensities of aqueous (Evian®) solutions containing a basic tastant, such as glucose and MSG, for example, in constant concentrations and the compounds of the general formula (A), for example […], in various concentrations were compared with those of a solution containing the basic tastant only. To achieve this, triangle tests were performed with two glass vials containing the basic tastant in constant concentrations, and one glass vial containing a stepwise 1:1-diluted mixture of basic […]. […] The relative taste strength (taste enhancing factor) of a mixture containing the basic […] was related to the basic tastants glucose, MSG, or other tastants, respectively, as standard substances, and was determined as the ratio of the concentrations c of iso-intensely tasting solutions of the basic tastant, such as glucose (glc), and the mixture containing tastant plus Pyridinium-Betain, […])=[…] […] This taste enhancing effect is illustrated in examples. The tasteless Pyridinium-Betaines […] and Gabapyridaine, built from non-[…] amino acids, were tested for their bitter-blocking activity on L-phenylalanine.

salty taste of NaCl [2] = assay: Salt taste detection threshold of NaCl/Pyridinium-Betaine mixtures (triangle test, sensory panel); type: in vivo
Method: • Sensory panel training: […] Sensory analyses were performed in a sensory panel room at 22-25° C. on three different sessions. • Taste thresholds: The taste thresholds of the tastants or mixtures containing basic tastants plus Pyridinium-Betains were determined in a triangle test using Evian® mineral water as the solvent at a defined pH ([…] and H.-D. Belitz, Z. Lebensm. Unters. Forsch. 1975, 159, 65-72). The samples (3 mL) were presented in order of increasing concentrations (serial 1:1 dilutions). The threshold values evaluated in two different sessions were averaged. […] The taste intensities of aqueous (Evian®) solutions containing a basic tastant, such as glucose and MSG, for example, in constant concentrations and the compounds of the general formula (A), for example […], in various concentrations were compared with those of a solution containing the basic tastant only. […] The relative taste strength (taste enhancing factor) of a mixture containing the basic […] was related to the basic tastants glucose, MSG, or other tastants, respectively, as standard substances, and was determined as the ratio of the concentrations c of iso-intensely tasting solutions of the basic tastant, such as glucose (glc), and the mixture containing tastant plus Pyridinium-Betain, […])=[…] […] This taste enhancing effect is illustrated in examples.

[3] = test system: bitter taste of L-phenylalanine; assay: Bitter intensity ranking with Glypyridaine: L-Phenylalanine; type: in vivo
From the text: (§1) Instead of working with low concentrated solutions at the bitter threshold, another series of experiments use carried out using more concentrated solutions of various bitter compounds to evaluate the bitter-blocking properties of Pyridinium-Betaines based on non-chiral amino acids. […] The bitter-reducing effect was most pronounced with L-Phenylalanine, the dipeptide H-Gly-Leu-OH, and caffeine.

[4] = test system: bitter taste of H-Gly-Leu-OH; assay: Bitter intensity ranking with Glypyridaine: H-Gly-Leu-OH; type: in vivo; details: scale 0-5
From the text: as §1, with “caffeine. For example the 10:1 mixture of L-Phenylalanine and […] was weaker in bitterness (score 3) as compared to pure L-Phenylalanine (score 5).” for “caffeine.”

bitter taste of caffeine = assay: Bitter intensity ranking with Glypyridaine: caffeine; type: in vivo; details: scale 0-5
From the text: as §1

bitter taste of salicine = assay: Bitter intensity ranking with Glypyridaine: salicine; type: in vivo; details: scale 0-5
From the text: as §1

[5] = test system: bitter taste of naringine; assay: Bitter intensity ranking with Glypyridaine: naringine; type: in vivo; details: scale 0-5
From the text: as §1

[6] = test system: bitter taste of coffee brew; assay: Bitterness reduction of coffee with Glypyridaine; type: in vivo; details: coffee brew 40 g/L plus 2.0 mmol/L Glypyridaine; coffee alone 5; scale 0 (no bitterness) to 5 (very bitter)
salty taste of NaCl [7] = assay: Salt-intensity ranking of NaCl/Pyridinium-Betaine mixtures by sensory panel; type: in vivo; details: 20 mmol/L each, pH 7.0; for Salt-intensity: scale 0 (not salty) to 5 (very salty), reference NaCl-solution ranked as 1
From the text: The salt-intensities of various NaCl/Pyridinium-Betaine mixtures (20 mmol/L each) were compared to a 20 mmol/L NaCl standard solution. The sensory panel was asked to rank the salt-intensities of these solutions on a scale from 0 (not salty) to 5 (very salty), while the reference NaCl-solution was ranked as 1. As listed in Table 6, the most intense salty taste was found in the solution containing NaCl and Alapyridaine, as well as in the triple mixture with L-arginine. A slight impact was found for Argpyridaine and L-arginine.

In the case of O=C1C=C(c2ccco2)C(CO)[n+]2cc([O-])c(Cc3ccco3)cc21 (stereo not drawn) [3-(2-furyl)-8-[(2-furyl)methyl]-4-hydroxymethyl-1-oxo-1H,4H-quinolizinium-7-olate], the “bitter taste detection threshold” value (bitter taste) is listed as 0.00025 mmol/kg water.

For O=C([O-])CCC[n+]1cc(O)ccc1CO [Gabapyridaine], the own taste [1] was “tasteless” and the Taste quality ([1]; pH 7.0) was “complete loss of the bitter taste”.

For O=C([O-])C[n+]1cc(O)ccc1CO [Glypyridaine, N-carboxymethyl-3-hydroxy-6-hydroxymethyl-pyridinium inner salt], the Salt detection threshold (salty taste of NaCl [2]; mixture with NaCl, pH 7.0) was 2.0 mmol/kg water, the Taste quality (salty taste of NaCl [2]; mixture with NaCl, pH 7.0) was “salty” and the Threshold decrease (salty taste of NaCl [2]; mixture with NaCl, pH 7.0, vs NaCl in water 10.0 mmol/L) was 5.0. For the same compound, the own taste [1] was “tasteless”, the Taste quality ([1]; pH 7.0) was “complete loss of the bitter taste” and the Bitter taste intensity ([3]; L-Phenylalanine 20 mmol/L water, ratio to Glypyridaine 1:1, scale 0-5) was 0. The Bitter taste intensity ([3]; L-Phenylalanine 20 mmol/L water, ratio to Glypyridaine 10:1, scale 0-5) was 0.5, the Bitter taste intensity ([3]; L-Phenylalanine 40 mmol/L water, ratio to Glypyridaine 1:1, scale 0-5) was 0 and the Bitter taste intensity ([3]; L-Phenylalanine 40 mmol/L water, ratio to Glypyridaine 10:1, scale 0-5) was 2. It also gave a Bitter taste intensity ([3]; L-Phenylalanine 80 mmol/L water, ratio to Glypyridaine 1:1, scale 0-5) of 0.5, a Bitter taste intensity ([3]; L-Phenylalanine 80 mmol/L water, ratio to Glypyridaine 10:1, scale 0-5) of 3 and a Bitter taste intensity ([4]; H-Gly-Leu-OH 30 mmol/L water, ratio to Glypyridaine 2:1) of 0.5. The Bitter taste intensity ([4]; H-Gly-Leu-OH 30 mmol/L water, ratio to Glypyridaine 10:1) was 2, the Bitter taste intensity ([4]; H-Gly-Leu-OH 60 mmol/L water, ratio to Glypyridaine 2:1) was 1 and the Bitter taste intensity ([4]; H-Gly-Leu-OH 60 mmol/L water, ratio to Glypyridaine 10:1) was 3. The Bitter taste intensity ([4]; H-Gly-Leu-OH 120 mmol/L water, ratio to Glypyridaine 10:1) was 4, the Bitter taste intensity (bitter taste of caffeine; Caffeine 4 mmol/L water, ratio to Glypyridaine 1:1) was 0.5 and the Bitter taste intensity (bitter taste of caffeine; Caffeine 4 mmol/L water, ratio to Glypyridaine 5:1) was 1.5. For the same compound, the Bitter taste intensity (bitter taste of caffeine; Caffeine 8 mmol/L water, ratio to Glypyridaine 1:1) was 1.5, the Bitter taste intensity (bitter taste of caffeine; Caffeine 8 mmol/L water, ratio to Glypyridaine 5:1) was 2 and the Bitter taste intensity (bitter taste of caffeine; Caffeine 16 mmol/L water, ratio to Glypyridaine 1:1) was 2. For the same compound, the Bitter taste intensity (bitter taste of caffeine; Caffeine 16 mmol/L water, ratio to Glypyridaine 5:1) was 3, the Bitter taste intensity (bitter taste of salicine; Salicine 0.8 mmol/L water, ratio to Glypyridaine 1:1) was 1 and the Bitter taste intensity (bitter taste of salicine; Salicine 1.6 mmol/L water, ratio to Glypyridaine 1:1) was 2. It also gave a Bitter taste intensity (bitter taste of salicine; Salicine 3.2 mmol/L water, ratio to Glypyridaine 1:1) of 3, a Bitter taste intensity ([5]; Naringine 0.06 mmol/L water, ratio to Glypyridaine 1:1) of 1 and a Bitter taste intensity ([5]; Naringine 0.13 mmol/L water, ratio to Glypyridaine 1:1) of 2. The Bitter taste intensity ([5]; Naringine 0.25 mmol/L water, ratio to Glypyridaine 1:1) was 3 and the “bitter taste intensity of coffee” value [6] was 2.

N=C(N)NCCC[C@H](N)C(=O)O [L-Arginine (L-Arg), L-Arginine] showed a Salt-intensity (salty taste of NaCl [7]) of 0.0.

With N[C@@H](Cc1ccccc1)C(=O)O [L-Phenylalanine, reference compound] the Taste quality ([1]; pH 7.0) was “bitter”, the Detection threshold ([1]; pH 7.0) was 16.0 mmol/L water and the Bitter taste intensity ([3]; L-Phenylalanine 20 mmol/L water, no Glypyridaine, scale 0 no bitterness to 5 strongly bitter) was 2. For the same compound, the Bitter taste intensity ([3]; L-Phenylalanine 40 mmol/L water, no Glypyridaine, scale 0-5) was 4 and the Bitter taste intensity ([3]; L-Phenylalanine 80 mmol/L water, no Glypyridaine, scale 0-5) was 5.

In the case of [Cl-].[Na+] [NaCl, sodium chloride, reference compound], the “threshold of salt (NaCl) in water” value (salty taste of NaCl [2]; NaCl alone) is reported as “^aThe threshold of salt (NaCl) in water is 10.0 mmol/L”, the Taste quality (salty taste of NaCl [2]; salt and mixtures with Alapyridaine enantiomers (Table 11), pH not stated) is reported as “salty” and the Detection threshold (salty taste of NaCl [2]; salty, salt and mixtures with Alapyridaine enantiomers (Table 11), pH not stated) is reported as 10.0 mmol/kg water. For the same compound, the Taste quality (salty taste of NaCl [7]) was “salty” and the Salt-intensity (salty taste of NaCl [7]) was 1.0.

C[C@@H]1O[C@@H](O[C@H]2[C@H](Oc3cc(O)c4c(c3)O[C@H](c3ccc(O)cc3)CC4=O)O[C@H](CO)[C@@H](O)[C@@H]2O)[C@H](O)[C@H](O)[C@H]1O [Naringine, reference compound] showed a Bitter taste intensity ([5]; Naringine 0.06 mmol/L water, no Glypyridaine) of 2.5, a Bitter taste intensity ([5]; Naringine 0.13 mmol/L water, no Glypyridaine) of 4 and a Bitter taste intensity ([5]; Naringine 0.25 mmol/L water, no Glypyridaine) of 5.

OCc1ccccc1O[C@@H]1O[C@H](CO)[C@@H](O)[C@H](O)[C@H]1O [Salicine, reference compound] gave a Bitter taste intensity (bitter taste of salicine; Salicine 0.8 mmol/L water, no Glypyridaine) of 3, a Bitter taste intensity (bitter taste of salicine; Salicine 1.6 mmol/L water, no Glypyridaine) of 4.5 and a Bitter taste intensity (bitter taste of salicine; Salicine 3.2 mmol/L water, no Glypyridaine) of 5.

With O=C([O-])CC[n+]1cc(O)ccc1CO [β-Alapyridaine] the own taste [1] was “tasteless” and the Taste quality ([1]; pH 7.0) was “complete loss of the bitter taste”.

With H-Gly-Leu-OH [reference compound] the Bitter taste intensity ([4]; H-Gly-Leu-OH 30 mmol/L water, no Glypyridaine) was 2.5, the Bitter taste intensity ([4]; H-Gly-Leu-OH 60 mmol/L water, no Glypyridaine) was 3.5 and the Bitter taste intensity ([4]; H-Gly-Leu-OH 120 mmol/L water, no Glypyridaine) was 5.
